Structures are written as SMILES. pIC50, pKi: −log10 of the molar value. Where two headings read alike, the source gives them in different places.

For test [1], the target named is T1, P2X7 (Homo sapiens (Human), UniProt Q99572). The test is described as follows: Radioligand binding, human P2X7-1321N1 cell membranes, tracer tritiated A-804598. The method, then:
On the day of the experiment, cell membrane preparations were made according to standard published methods. […] The compound can be prepared as described in the literature. […] The assay was terminated by filtration (GF/B filters pre-soaked with 0.3% PEI) and washed with washing buffer (Tris-HCl 50 mM). The IC50 generated in the binding assay was corrected for tracer concentration and affinity of the tracer to derive at the affinity (Ki) of the test compounds.

Test [2] deals with T1, P2X7. Kind of test: Ca2+ flux (FLIPR) in 1321N1 cells expressing recombinant human P2X7 channel. In kind it is cell-based. To be noted: 250 μM BzATP, Calcium-4 dye. The method, then:
(§1) 1321N1 cells expressing the recombinant human, rat or mouse P2X7 channel was cultured in HyQ DME/(HyClone/Dulbecco's Modified Eagle Medium) high glucose supplemented with 10% Fetal Bovine Serum (FBS) and appropriate selection marker. Cells were seeded at a density of 25000 cells/well (96-well clear bottom black walled plates) in 100 μl volume/well. On the day of the experiment, cell plates were washed with assay buffer, containing (in mM): 130 NaCl, 2 KCl, 1 CaCl2, 1 MgCl2, 10 HEPES, 5 glucose; pH 7.40 and 300 mOs. After the wash, cells were loaded with the Calcium-4 dye (Molecular Device) and incubated in the dark for 60 minutes. Test compounds were prepared at 250× the test concentration in neat DMSO. Intermediate 96-well compound plates were prepared by transferring 1.2 μL of the compound into 300 μL of assay buffer. A further 3× dilution occurred when transferring 50 μL/well of the compound plate to 100 μL/well in the cell plate. Cells were incubated with test compounds and dye for 30 minutes. […] The fluorescence change was measured 180 seconds after adding the agonist.
Background: Calcium assays in cells follow changes in intracellular calcium, usually with a dye or a luminescent sensor.

A further test has as its target rat P2X7 (Rattus norvegicus (Rat), UniProt Q64663). The test is described as follows: Ca2+ flux (FLIPR) in 1321N1 cells expressing recombinant rat P2X7 channel. Format: cell-based. To be noted: 250 μM BzATP, Calcium-4 dye. Here is the method:
as §1

Test [3] addresses T1, P2X7. The test is described as follows: P2X7 antagonism in human PBMCs (IL-1β release, ELISA). In kind it is cell-based. To be noted: test compound 10 μM, IL-1β release in human PBMCs, LPS 30 ng/ml + Bz-ATP 0.5 mM, read-out: PBMC 10 μM (% control). Here is the method:
Human blood was collected using a blood donor program. […] Cells were incubated for an additional 1.5 hours. […] In Table 2, when the data cell has been left blank, it is intended to mean that the compound was not tested in that assay.

[4] abbreviates: human P2X7-1321N1 membranes, 1 hour at 4° C., IC50 corrected for tracer concentration and affinity.

T1 sequence (Q99572 whole entry): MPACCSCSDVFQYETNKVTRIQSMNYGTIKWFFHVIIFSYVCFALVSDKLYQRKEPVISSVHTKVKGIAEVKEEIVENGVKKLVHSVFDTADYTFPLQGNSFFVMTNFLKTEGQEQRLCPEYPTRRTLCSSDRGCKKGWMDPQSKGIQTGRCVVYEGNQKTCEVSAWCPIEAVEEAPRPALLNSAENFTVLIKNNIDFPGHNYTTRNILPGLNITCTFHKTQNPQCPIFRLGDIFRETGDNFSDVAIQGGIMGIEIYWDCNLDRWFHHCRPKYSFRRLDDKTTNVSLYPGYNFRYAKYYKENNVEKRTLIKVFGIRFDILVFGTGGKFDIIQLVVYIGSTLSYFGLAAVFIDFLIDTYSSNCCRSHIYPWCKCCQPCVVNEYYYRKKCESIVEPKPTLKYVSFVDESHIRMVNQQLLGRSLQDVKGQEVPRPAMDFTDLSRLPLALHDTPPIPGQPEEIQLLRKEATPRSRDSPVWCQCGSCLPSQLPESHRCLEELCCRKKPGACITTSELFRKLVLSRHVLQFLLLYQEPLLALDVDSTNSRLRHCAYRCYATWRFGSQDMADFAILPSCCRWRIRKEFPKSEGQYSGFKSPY
Sequence of rat P2X7 (Q64663 whole entry): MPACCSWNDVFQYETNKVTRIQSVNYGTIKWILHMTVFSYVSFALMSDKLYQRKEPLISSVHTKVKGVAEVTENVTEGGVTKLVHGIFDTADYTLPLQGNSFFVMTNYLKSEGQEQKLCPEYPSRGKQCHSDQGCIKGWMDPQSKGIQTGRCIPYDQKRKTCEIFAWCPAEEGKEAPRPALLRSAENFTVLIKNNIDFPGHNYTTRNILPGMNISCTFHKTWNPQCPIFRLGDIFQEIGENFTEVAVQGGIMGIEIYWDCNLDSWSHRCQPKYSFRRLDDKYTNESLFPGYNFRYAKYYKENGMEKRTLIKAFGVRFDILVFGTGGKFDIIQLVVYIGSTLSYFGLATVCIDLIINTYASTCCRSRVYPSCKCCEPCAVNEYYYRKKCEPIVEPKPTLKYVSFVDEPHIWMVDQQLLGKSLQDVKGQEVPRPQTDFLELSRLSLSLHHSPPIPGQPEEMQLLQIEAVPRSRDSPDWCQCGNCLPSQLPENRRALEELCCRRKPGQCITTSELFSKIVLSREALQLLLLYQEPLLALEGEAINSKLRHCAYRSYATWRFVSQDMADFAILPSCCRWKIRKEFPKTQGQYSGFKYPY

One may read the pKi as the Ki on a negative log10 scale, so that one unit is a factor of ten. A low value points to a high Ki. Usually pIC50 stands for the negative decadic logarithm of the IC50, by convention in mol/L. For `Cc1nc2c(c(-c3ccccc3)n1)CCN(C(=O)c1cccc(Cl)c1Cl)C2` [Example 27, 7-[(2,3-Dichlorophenyl)carbonyl]-2-methyl-4-phenyl-5,6,7,8-tetrahydropyrido[3,4-d]pyrimidine], the negative logarithm of the Ki (pKi) at P2X7 [1] (setting [4]) is 6.37. The figures for the pIC50 on P2X7 [2] and on rat P2X7 were 6.93 and 5.34, respectively.
In the case of `Cc1nc2c(c(-c3ccn[nH]3)n1)CC(C)N(C(=O)c1cccc(C#N)c1C)C2` (centres unmarked) [Example 61, 3-(2,6-dimethyl-4-(1H-pyrazol-5-yl)-5,6,7,8-tetrahydropyrido[3,4-d]pyrimidine-7-carbonyl)-2-methylbenzonitrile], on P2X7 [3], the remaining activity at 10 µM was -1.2%. In addition, the negative-log IC50 (pIC50) on P2X7 [2] is 6.35; on rat P2X7, 5.51.
The corresponding values for `Cc1ccc(C(=O)N2Cc3nc(C)nc(-c4ccn[nH]4)c3CC2C)c(C)c1` (centres unmarked) [Example 131, (2,6-dimethyl-4-(1H-pyrazol-5-yl)-5,6-dihydropyrido[3,4-d]pyrimidin-7(8H)-yl)(2,4-dimethylphenyl)methanone] are 7.3%, 4.94 and less than 5.00.
Take `O=C(c1cccc(C(F)(F)F)c1Cl)N1CCc2c(ncnc2-c2nccs2)C1` [Example 37, 7-{[2-Chloro-3-(trifluoromethyl)phenyl]carbonyl}-4-(1,3-thiazol-2-yl)-5,6,7,8-tetrahydropyrido[3,4-d]pyrimidine]: the pKi on P2X7 [1] (setting [4]) was 7.30. For the same molecule, the negative-log IC50 (pIC50) on P2X7 [2] is 7.92.
With `Cc1nc2c(c(-c3ccn[nH]3)n1)CC(C)N(C(=O)c1cccc(F)c1C)C2` (centres unmarked) [Example 134, (2,6-dimethyl-4-(1H-pyrazol-5-yl)-5,6-dihydropyrido[3,4-d]pyrimidin-7(8H)-yl)(3-fluoro-2-methylphenyl)methanone], the remaining activity at 10 µM on P2X7 [3] came out at 0.4%. The pIC50 is 6.48 on P2X7 [2] and 5.90 on rat P2X7.
For the molecule `Cc1nc2c(c(-c3ccn[nH]3)n1)C[C@H](C)N(C(=O)c1ccc(Cl)cc1F)C2` (single isomer, unassigned) [Example 89, (S*)-(4-chloro-2-fluorophenyl)(2,6-dimethyl-4-(1H-pyrazol-5-yl)-5,6-dihydropyrido[3,4-d]pyrimidin-7(8H)-yl)methanone], the pKi on P2X7 [1] was 7.94. In addition, the pIC50 on P2X7 [2] is 7.76.
For the molecule `O=C(c1cccc(Cl)c1Cl)N1CCc2c(ncnc2-c2nccs2)C1` [Example 38, 7-[(2,3-Dichlorophenyl)carbonyl]-4-(1,3-thiazol-2-yl)-5,6,7,8-tetrahydropyrido[3,4-d]pyrimidine], on P2X7 [1] (setting [4]), the negative-log Ki (pKi) was 7.11. Further, at P2X7 [2], the negative logarithm of the IC50 (pIC50) is 7.20.
For `O=C(c1cccc(C(F)(F)F)c1Cl)N1CCc2c(ncnc2-c2ccccc2)C1` [Example 1, 7-{[2-Chloro-3-(trifluoromethyl)phenyl]carbonyl}-4-phenyl-5,6,7,8-tetrahydropyrido[3,4-d]pyrimidine], on P2X7 [1] (setting [4]), the pKi was 6.65. The negative-log IC50 (pIC50) at P2X7 [2] is 7.52; on rat P2X7 it was 5.90.
At P2X7 [1] (setting [4]), `O=C(c1cccc(C(F)(F)F)c1Cl)N1CCc2c(ncnc2-c2ccc[nH]2)C1` [Example 42, 7-{[2-Chloro-3-(trifluoromethyl)phenyl]carbonyl}-4-(1H-pyrrol-2-yl)-5,6,7,8-tetrahydropyrido[3,4-d]pyrimidine] had a pKi of 7.10. The negative-log IC50 (pIC50) at P2X7 [2] was 7.70.
As to `Cc1nc2c(c(-c3ccn[nH]3)n1)CC(C)N(C(=O)c1ccc(F)cc1C)C2` (centres unmarked) [Example 133, (2,6-dimethyl-4-(1H-pyrazol-5-yl)-5,6-dihydropyrido[3,4-d]pyrimidin-7(8H)-yl)(4-fluoro-2-methylphenyl)methanone], on P2X7 [3], the remaining activity at 10 µM stood at 0.1%. In addition, the pIC50 on P2X7 [2] was 6.04.
With `Cc1nc2c(c(-c3ccn[nH]3)n1)C[C@@H](C)N(C(=O)c1cccc(C(F)(F)F)c1C)C2` (single isomer, unassigned) [Example 78, (R*)-(2,6-dimethyl-4-(1H-pyrazol-5-yl)-5,6-dihydropyrido[3,4-d]pyrimidin-7(8H)-yl)(2-methyl-3-(trifluoromethyl)phenyl)methanone], the negative logarithm of the Ki (pKi) at P2X7 [1] was 8.10. In addition, the pIC50 at P2X7 [2] was 7.87.
For `Cc1nc2c(c(-c3ccn[nH]3)n1)CC(C)N(C(=O)c1cccc(C)c1C)C2` (centres unmarked) [Example 132, (2,6-dimethyl-4-(1H-pyrazol-5-yl)-5,6-dihydropyrido[3,4-d]pyrimidin-7(8H)-yl)(2,3-dimethylphenyl)methanone], the remaining activity at 10 µM at P2X7 [3] is -0.1%. For the same molecule, the pIC50 on P2X7 [2] was 6.27; at rat P2X7, 5.15.
In the case of `Cc1nc2c(c(-c3cscn3)n1)CCN(C(=O)c1cccc(C(F)(F)F)c1Cl)C2` [Example 44, 7-{[2-Chloro-3-(trifluoromethyl)phenyl]carbonyl}-2-methyl-4-(1,3-thiazol-4-yl)-5,6,7,8-tetrahydropyrido[3,4-d]pyrimidine], the pKi on P2X7 [1] (setting [4]) was 7.20. Also, the pIC50 at P2X7 [2] was 7.46; on rat P2X7 it was 6.81.
Molecule `Cc1nc2c(c(-c3ccn[nH]3)n1)C[C@H](C)N(C(=O)c1ccc(F)cc1F)C2` (single isomer, unassigned) [Example 95, (S*)-(2,4-difluorophenyl)(2,6-dimethyl-4-(1H-pyrazol-5-yl)-5,6-dihydropyrido[3,4-d]pyrimidin-7(8H)-yl)methanone] gave a negative logarithm of the Ki (pKi) on P2X7 [1] of 7.50. The figures for the negative logarithm of the IC50 (pIC50) at P2X7 [2] and on rat P2X7 were 7.19 and 6.99, respectively.
Regarding `O=C(c1cc(F)c(F)cc1Cl)N1CCc2c(ncnc2-c2cnccn2)C1` [Example 16, 7-[(2-Chloro-4,5-difluorophenyl)carbonyl]-4-pyrazin-2-yl-5,6,7,8-tetrahydropyrido[3,4-d]pyrimidine], the remaining activity at 10 µM on P2X7 [3] came out at 20.4%. In addition, the pIC50 on P2X7 [2] was 4.88; at rat P2X7, less than 5.00.
The corresponding values for `Cc1nc2c(c(-c3ccn[nH]3)n1)CC(C)N(C(=O)c1cccc(C)c1F)C2` (centres unmarked) [Example 135, (2,6-dimethyl-4-(1H-pyrazol-5-yl)-5,6-dihydropyrido[3,4-d]pyrimidin-7(8H)-yl)(2-fluoro-3-methylphenyl)methanone] are -1%, 6.31 and 5.73.
For `Cc1nc2c(c(-c3ccn[nH]3)n1)CC(C)N(C(=O)c1ccc(C#N)cc1C)C2` (centres unmarked) [Example 3, 4-(2,6-dimethyl-4-(1H-pyrazol-5-yl)-5,6,7,8-tetrahydropyrido[3,4-d]pyrimidine-7-carbonyl)-3-methylbenzonitrile] the same measures were 2.5%, 6.10 and 5.37.
Turning to `O=C(c1cccc(C(F)(F)F)c1Cl)N1CCc2c(ncnc2-n2cncn2)C1` [Example 110, (4-(1H-1,2,4-triazol-1-yl)-5,6-dihydropyrido[3,4-d]pyrimidin-7(8H)-yl)(2-chloro-3-(trifluoromethyl)phenyl)methanone], on P2X7 [3], the remaining activity at 10 µM was determined as 20.1%. For the same molecule, the negative-log IC50 (pIC50) at P2X7 [2] and on rat P2X7 was less than 5.00 in each case.
`O=C(c1ccc(F)c(Cl)c1Cl)N1CCc2c(ncnc2-c2cccc(F)n2)C1` [Example 129, (2,3-dichloro-4-fluorophenyl)(4-(6-fluoropyridin-2-yl)-5,6-dihydropyrido[3,4-d]pyrimidin-7(8H)-yl)methanone]: the remaining activity at 10 µM at P2X7 [3] was determined as 2.5%. On P2X7 [1] (setting [4]), this molecule had a pKi of 7.40.

The record behind these values is patent publication US9096596B2 (Janssen Pharmaceutica NV, priority 2013, dated 2015).
